# Measured values: patent publication US7888386B2, “3-(phenoxyphenylmethyl)pyrrolidine compounds” (Theravance, Inc., priority 2008, dated 2011)
# Where two headings read alike, the source gives them in different places.
# How the values were obtained:
# [1] = target: T1, hSERT (Homo sapiens, UniProt P31645); assay: hSERT binding assay (Assay 1)
# T1 construct: expressed in transfected cells; host or cells: HEK-293 derived cell line, stably transfected; membrane preparation
# Experimental: (§1) Membrane radioligand binding assays were used to measure competitive inhibition of labeled ligand (^3H-citalopram or ^3H-nisoxetine or ^3H-WIN35428) binding to membranes prepared from cells expressing the respective human recombinant transporter (hSERT or hNET or hDAT) in order to determine the pKi values of test compounds at the transporters.
# (§2) Recombinant human embryonic kidney (HEK-293) derived cell lines stably transfected with hSERT or hNET, respectively, were grown in DMEM medium supplemented with 10% dialyzed FBS (for hSERT) or FBS (for hNET), 100 μg/ml penicillin, 100 μg/ml streptomycin, 2 mM L-glutamine and 250 μg/ml of the aminoglycoside antibiotic G418, in a 5% CO2 humidified incubator at 37° C. When cultures reached 80% confluence, the cells were washed thoroughly in PBS (without Ca^2+ and Mg^2+) and lifted with 5 mM EDTA in PBS. Cells were pelleted by centrifugation, resuspended in lysis buffer (10 mM Tris-HCl, pH 7.5 containing 1 mM EDTA), homogenized, pelleted by centrifugation, then resuspended in 50 mM Tris-HCl, pH 7.5 and 10% sucrose at 4° C. Protein concentration of the membrane suspension was determined using a Bio-Rad Bradford Protein Assay kit. Membranes were snap frozen and stored at −80° C. Chinese hamster ovary membranes expressing hDAT (CHO-DAT) were purchased from PerkinElmer and stored at −80° C.
# (§3) Stock solutions (10 mM in DMSO) of test compound were prepared and serial dilutions made using Dilution Buffer (50 mM Tris-HCl, 120 mM NaCl, 5 mM KCl, pH 7.4, 0.1% BSA, 400 μM ascorbic acid).
# (§4) Following a 60 minute incubation at 22° C. (or a period sufficient to reach equilibrium), the membranes were harvested by rapid filtration over a 96-well UniFilter GF/B plate, pretreated with 0.3% polyethyleneimine, and washed 6 times with 300 μl wash buffer (50 mM Tris-HCl, 0.9% NaCl, pH 7.5 at 4° C.). Plates were dried overnight at room temperature, ˜45 μl of MicroScint™-20 (Perkin Elmer) added and bound radioactivity quantitated via liquid scintillation spectroscopy. Competitive inhibition curves and saturation isotherms were analyzed using GraphPad Prism Software package (GraphPad Software, Inc., San Diego, Calif.). IC50 values were generated from concentration response curves using the Sigmoidal Dose Response (variable slope) algorithm in Prism GraphPad.
# [2] = target: T2, hNET (Homo sapiens, UniProt P23975); assay: hNET binding assay (Assay 1); settings: read-out: NET pKi (converted)
# T2 construct: expressed in transfected cells; host or cells: HEK-293 derived cell line, stably transfected; membrane preparation
# Experimental: as §1, §2, §3, §4
# [3] = ratio of SERT Ki to NET Ki (binding)
# [4] = ratio of SERT Ki to NET Ki from binding assays
# [5] = ratio of binding Ki at hSERT to Ki at hNET, rounded off to the nearest tenth
# [6] = membranes of HEK-293 cells expressing hNET, 1.0 nM 3H-nisoxetine
# [7] = ratio of binding Ki at SERT to Ki at NET, the tables list only compounds with a ratio in the range 0.1-100
# [8] = hNET binding, the tables list only compounds with NET pKi≧8
# T2 sequence (P23975 whole entry): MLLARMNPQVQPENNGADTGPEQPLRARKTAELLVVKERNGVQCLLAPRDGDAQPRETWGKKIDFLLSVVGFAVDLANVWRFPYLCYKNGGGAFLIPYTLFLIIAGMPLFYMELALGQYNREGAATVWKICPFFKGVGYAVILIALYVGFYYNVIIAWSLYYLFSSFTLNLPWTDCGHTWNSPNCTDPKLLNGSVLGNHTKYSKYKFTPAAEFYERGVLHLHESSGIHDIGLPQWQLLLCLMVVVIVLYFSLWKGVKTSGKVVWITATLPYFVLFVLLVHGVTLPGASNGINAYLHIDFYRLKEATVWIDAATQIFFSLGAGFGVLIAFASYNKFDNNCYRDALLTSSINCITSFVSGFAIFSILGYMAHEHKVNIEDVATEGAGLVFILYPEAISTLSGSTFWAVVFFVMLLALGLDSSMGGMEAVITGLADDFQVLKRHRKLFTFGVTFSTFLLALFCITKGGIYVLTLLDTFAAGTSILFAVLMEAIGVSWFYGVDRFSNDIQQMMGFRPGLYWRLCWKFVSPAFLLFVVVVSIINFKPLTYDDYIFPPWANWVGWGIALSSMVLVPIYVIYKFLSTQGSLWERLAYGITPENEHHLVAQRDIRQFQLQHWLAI
# T1 sequence (P31645 whole entry): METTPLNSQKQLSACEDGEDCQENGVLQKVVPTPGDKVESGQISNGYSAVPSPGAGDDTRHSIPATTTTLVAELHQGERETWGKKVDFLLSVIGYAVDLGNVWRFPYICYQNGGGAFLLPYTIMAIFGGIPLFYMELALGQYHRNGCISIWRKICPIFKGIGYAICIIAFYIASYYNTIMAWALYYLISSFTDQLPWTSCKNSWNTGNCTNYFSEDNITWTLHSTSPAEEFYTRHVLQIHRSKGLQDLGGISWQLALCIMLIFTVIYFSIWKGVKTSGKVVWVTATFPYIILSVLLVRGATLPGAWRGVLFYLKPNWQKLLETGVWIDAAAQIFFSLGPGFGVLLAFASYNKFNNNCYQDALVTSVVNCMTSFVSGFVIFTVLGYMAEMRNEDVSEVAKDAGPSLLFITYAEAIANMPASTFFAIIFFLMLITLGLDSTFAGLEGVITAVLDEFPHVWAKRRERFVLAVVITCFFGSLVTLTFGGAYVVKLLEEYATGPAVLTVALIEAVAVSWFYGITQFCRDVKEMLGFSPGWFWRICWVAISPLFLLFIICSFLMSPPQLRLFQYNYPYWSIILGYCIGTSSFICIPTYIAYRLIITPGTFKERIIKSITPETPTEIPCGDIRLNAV
smiles,measurement,setting,value
Cc1ccc(Cl)c(O[C@@H](c2cc(F)cc(F)c2)[C@H]2CCNC2)c1Cl [41-27],SERT Ki/NET Ki,[1]; [3],0.8
same,Ki,[2]; hNET binding,0.794 nM
Fc1cccc(Cl)c1O[C@H](c1ccccc1)[C@@H]1CCNC1 [31-5],SERT Ki/NET Ki,[1]; [4],1.3
same,Ki,[2]; hNET binding assay,0.631 nM
"Fc1cccc(O[C@@H](c2ccccc2)[C@H]2CCNC2)c1Cl [Ex. 9-4, (S)-3-[(R)-(2-chloro-3-fluorophenoxy)phenylmethyl]pyrrolidine]",SERT Ki/NET Ki,[1]; [5],6.3
same,Ki,[2]; [6],0.631 nM
COc1ccc(Cl)cc1OC(c1cccc(Cl)c1)C1CCNC1 (stereo not shown) [30-9],SERT Ki/NET Ki,[1]; [4],0.6
same,Ki,[2]; hNET binding assay,7.94 nM
Cc1ccc(Cl)c(OC(c2ccc(Cl)cc2)C2CCNC2)c1Cl (stereo not shown) [41-19],SERT Ki/NET Ki,[1]; [3],0.6
same,Ki,[2]; hNET binding,1.26 nM
Fc1ccc(F)c(OC(c2ccccc2)C2CCNC2)c1 (racemic) [29-1],SERT Ki/NET Ki,[1]; [4],4
same,Ki,[2]; hNET binding assay,2 nM
"Cc1ccc(F)c(O[C@@H](c2ccccc2)[C@H]2CCNC2)c1Cl [Ex. 13, (S)-3-[(R)-(2-chloro-6-fluoro-3-methylphenoxy)phenylmethyl]pyrrolidine]",SERT Ki/NET Ki,[1]; [3],1.3
same,Ki,[2]; hNET binding,0.251 nM
Cc1cc(Cl)c(OC(c2ccccc2)C2CCNC2)cc1F (stereo not shown) [42-4],SERT Ki/NET Ki,[1]; [3],0.5
same,Ki,[2]; hNET binding,2.51 nM
Cc1ccc(OC(c2ccccc2)C2CCNC2)c(F)c1F (stereo not shown) [36-5],SERT Ki/NET Ki,[1]; [3],0.5
same,Ki,[2]; hNET binding,1.26 nM
Cc1cc(F)cc(C(Oc2cc(Cl)cc(Cl)c2)C2CCNC2)c1 (stereo not shown) [35-19],SERT Ki/NET Ki,[1]; [3],0.4
same,Ki,[2]; hNET binding,6.31 nM
Fc1cc(F)cc([C@H](Oc2c(Cl)c(F)cc(F)c2Cl)[C@H]2CCNC2)c1 [48-2],SERT Ki/NET Ki,[1]; [7],10
same,Ki,[2]; [8],0.398 nM
Clc1cc(Cl)c(Cl)c(O[C@H](c2ccccc2Cl)[C@@H]2CCNC2)c1 (racemic) [39-4],SERT Ki/NET Ki,[1]; [3],0.1
same,Ki,[2]; hNET binding,3.98 nM
Clc1ccccc1OC(c1ccccc1Cl)C1CCNC1 (stereo not shown) [Compound 20-1],SERT Ki/NET Ki,[1]; [5],0.5
same,Ki,[2]; [6],3.16 nM
CCc1ccccc1OC(c1ccccc1)C1CCNC1 (stereo not shown) [Compound 19-11],SERT Ki/NET Ki,[1]; [5],4
same,Ki,[2]; [6],3.16 nM
Fc1cc(F)cc(C(Oc2ccc(F)c(F)c2F)C2CCNC2)c1 (stereo not shown) [37-1],SERT Ki/NET Ki,[1]; [3],4
same,Ki,[2]; hNET binding,5.01 nM
Fc1cc(F)c(Cl)c(OC(c2ccccc2)C2CCNC2)c1F (stereo not shown) [47-7],SERT Ki/NET Ki,[1]; [7],0.4
same,Ki,[2]; [8],0.501 nM
Cc1cccc(O[C@@H](c2ccccc2)[C@H]2CCNC2)c1 [Compound 21-8],SERT Ki/NET Ki,[1]; [5],2.5
same,Ki,[2]; [6],6.31 nM
Fc1c(Cl)cccc1OC(c1ccccc1)C1CCNC1 (stereo not shown) [Compound 25-3],SERT Ki/NET Ki,[1]; [5],0.5
same,Ki,[2]; [6],0.794 nM
COc1cc(F)ccc1OC(c1ccccc1)C1CCNC1 (stereo not shown) [27-25],SERT Ki/NET Ki,[1]; [4],4.6
same,Ki,[2]; hNET binding assay,0.794 nM
Clc1cccc(C(Oc2ccccc2Cl)C2CCNC2)c1 (stereo not shown) [Compound 20-5],SERT Ki/NET Ki,[1]; [5],1.6
same,Ki,[2]; [6],2.51 nM
COc1cccc(C(Oc2ccccc2Cl)C2CCNC2)c1 (stereo not shown) [Compound 20-7],SERT Ki/NET Ki,[1]; [5],1.3
same,Ki,[2]; [6],3.16 nM
Fc1ccc(O[C@@H](c2ccccc2)[C@H]2CCNC2)c(F)c1F [36-1],SERT Ki/NET Ki,[1]; [3],0.8
same,Ki,[2]; hNET binding,6.31 nM
Fc1cc(F)cc(C(Oc2cc(Cl)ccc2Cl)C2CCNC2)c1 (stereo not shown) [30-3],SERT Ki/NET Ki,[1]; [4],0.3
same,Ki,[2]; hNET binding assay,3.98 nM
Clc1cc(Br)cc(OC(c2ccccc2)C2CCNC2)c1 (stereo not shown) [34-11],SERT Ki/NET Ki,[1]; [4],0.1
same,Ki,[2]; hNET binding assay,2.51 nM
Fc1cc(Cl)cc(F)c1OC(c1ccccc1)C1CCNC1 (stereo not shown) [44-8],SERT Ki/NET Ki,[1]; [7],0.1
same,Ki,[2]; [8],3.98 nM
Ic1ccccc1OC(c1ccccc1)C1CCNC1 (stereo not shown) [Compound 19-8],SERT Ki/NET Ki,[1]; [5],0.6
same,Ki,[2]; [6],1 nM
Fc1cc(F)cc(C(Oc2c(Cl)c(F)cc(F)c2Cl)C2CCNC2)c1 (stereo not shown) [48-1],SERT Ki/NET Ki,[1]; [7],2
same,Ki,[2]; [8],0.501 nM
Fc1ccc(F)c(O[C@H](c2ccccc2)[C@@H]2CCNC2)c1 [29-3],SERT Ki/NET Ki,[1]; [4],0.5
same,Ki,[2]; hNET binding assay,7.94 nM
COc1ccc(F)c(OC(c2ccccc2)C2CCNC2)c1F (stereo not shown) [40-4],SERT Ki/NET Ki,[1]; [3],6.3
same,Ki,[2]; hNET binding,0.631 nM
